Measurements from US11931346B2, “Uses of 4′-desferrithiocin analogs” (University of Florida Research Foundation, Incorporated, priority 2011, dated 2024).
Where two headings read alike, the source gives them in different places.

Assays:
[1] = test system: acetic acid-induced colitis in rats; experiment: Prevention of acetic acid-induced colitis in a rat model; format: in vivo, Sprague-Dawley rats; settings: DFO 20 mg/kg 30 minutes before 4% acetic acid (FIG. 1)
Protocol: Induction of colitis. Male Sprague-Dawley rats (250-350 g) were anesthetized with sodium pentobarbital, 55 mg/kg intraperitoneally. The abdomen was shaved and prepared for surgery. A midline incision was made, and the cecum and proximal colon were exteriorized. A reversible suture was placed at the junction of the cecum and proximal colon. The colon was rinsed with saline (10 ml), and the fluid and intestinal contents were gently expressed out the rectum. A gum-based rectal plug was inserted. The compound of interest, or distilled water in the control animals (2 ml), was injected intracolonically just distal to the ligature. The cecum and proximal colon were returned to the abdominal cavity; the compound was allowed to remain in the gut for 30 min. Then, the cecum and proximal colon were exteriorized again. The rectal plug was removed, and the drug was gently expressed out of the colon. […] The entire length of the colon was removed and assessed for damage both densitometrically and biochemically.
Quantitation of acetic acid-induced colitis. Gross damage was quantitated using Photoshop-based image analysis (version 5.0, Adobe Systems, Mountain View, Calif., USA) on an Apple iMac computer. […] The cursor was then placed on the histogram, the color range determined in an earlier step was selected, and the number of pixels encompassing that range and the percent damage were quantitated automatically.

[2] = Apparent partition coefficient (LogPapp) of DFT analogs; format: physicochemical
[3] = Concentration of DFT analogs in rat plasma and cerebrospinal fluid after PO or SC dose; format: in vivo, Sprague-Dawley rats; settings: rats, PO 300 μmol/kg, monosodium salt
Protocol: Adult male Sprague-Dawley rats (450-500 g) were used. The rats were not fasted. A sample solution of a monosodium salt of (S)-4′-(HO)-DADFT-norPE (III-A) or (S)-4′-(HO)-DADFT-PE (IV-A) was administered to the rats at an oral or subcutaneous dose of 300 μmol/kg. Concentrations of the DFT analogs in the plasma and cerebrospinal fluid of the rats were measured at 0.5 hour, 1 hour, 2 hours, 4 hours, and 8 hours post administration.

[4] = Concentration of DFT analogs in rat plasma and eyes after SC dose, rats not perfused; format: in vivo; settings: non-perfused rats, SC 300 μmol/kg, one hour post dose; for Concentration in the eye: entire eye; for concentration at 1 h: rat, plasma
Protocol: (§1) Rats were anesthetized with ketamine/xylazine about 50 minutes after dosing. Blood of the rats was collected via cardiac puncture into vacutainer tubes containing buffered sodium citrate one hour post dose. The rats' eyes were removed. Any extraneous tissue was trimmed and discarded. The eyes were frozen. The entire eye was then processed and assessed for the concentration of the DFT analog. The whole blood was centrifuged, and the plasma was separated and frozen until the concentration of the DFT analog was determined.

[5] = Concentration of DFT analogs in rat plasma and eyes after SC dose, rats perfused with saline; format: in vivo; settings: SC 300 μmol/kg, one hour post dose; for concentration at 1 h: rat, plasma, rats perfused with saline; for Concentration in the eye: rats perfused with saline (about 100 ml, 5 minutes), entire eye
Protocol: as §1, with “dose. The rats' abdomen and thorax were opened, and a portion of the sternum/ribs was removed. A 19-gauge needle was inserted into the left ventricle of the rats, and the right atrium was cut. About 100 ml of saline was perfused transcardially for five minutes. The perfusion was stopped, and the rats' eyes” for “dose. The rats' eyes”

[6] = male, Sprague-Dawley, rat, cerebrospinal fluid, read-out: Concentration in cerebrospinal fluid
[7] = male, Sprague-Dawley, rat, plasma, read-out: Concentration in plasma
[8] = male, Sprague-Dawley, rat, plasma, 1 h, read-out: Concentration in plasma
[9] = male, Sprague-Dawley, rat, plasma, 2 h
[10] = male, Sprague-Dawley, rat, plasma, 4 h, read-out: Concentration in plasma

| LogPapp [2] | concentration at 0.5 h [3, 6] [µM] | concentration at 1 h ([3]; male, Sprague-Dawley, rat, cerebrospinal fluid, 1 h, read-out: Concentration in cerebrospinal fluid) [µM] | concentration at 4 h ([3]; male, Sprague-Dawley, rat, cerebrospinal fluid, 4 h, read-out: Concentration in cerebrospinal fluid) [µM] | concentration at 8 h ([3]; male, Sprague-Dawley, rat, cerebrospinal fluid, 8 h) [µM] | concentration at 0.5 h [3, 7] [µM] | concentration at 1 h [3, 8] [µM] | concentration at 2 h [3, 9] [µM] | concentration at 4 h [3, 10] [µM] | Concentration in cerebrospinal fluid ([3]; 2 h) | Concentration in plasma ([3]; 8 h) | Concentration in the eye [4] | concentration at 1 h [4] [µM] | concentration at 1 h [5] [µM] | Concentration in the eye [5] | Concentration in cerebrospinal fluid ([3]; 1 h) | Concentration in cerebrospinal fluid ([3]; 4 h) | Concentration in cerebrospinal fluid ([3]; 8 h) | Compound | Prevention of acetic acid-induced colitis [1] |
| --- | --- | --- | --- | --- | --- | --- | --- | --- | --- | --- | --- | --- | --- | --- | --- | --- | --- | --- | --- |
| – | – | – | – | – | – | – | – | – | – | – | – | – | – | – | – | – | – | CC(=O)N(O)CCCCCNC(=O)CCC(=O)N(O)CCCCCNC(=O)CCC(=O)N(O)CCCCCN [DFO, desferrioxamine] | prevent acetic acid-induced colitis in rats |
| −0.89 | 8.07 ± 3.09 | 5.7 ± 2.74 | 0 | 0 | 424 ± 60 | 219 ± 19 | 30 ± 5 | 2 ± 0.4 | 2.32 (only 1 out 3 animals μM | trace | 25.8 ± 6.0 nmol/g wet weight of the eye | 218 ± 16 | 218 ± 51 | 17.2 ± 5.5 nmol/g wet weight of the eye | – | – | – | COCCOCCOc1ccc(C2=N[C@@](C)(C(=O)O)CS2)c(O)c1 [III-A, (S)-4′-(HO)-DADFT-norPE] | – |
| −1.10 | 2.14 ± 1.01 | – | – | – | 142 ± 57 | 64 ± 7 | 32 ± 20 | 2 ± 0.5 | trace | trace | – | – | – | – | trace | trace | trace | COCCOCCOCCOc1ccc(C2=N[C@@](C)(C(=O)O)CS2)c(O)c1 [IV-A, (S)-4′-(HO)-DADFT-PE] | – |
| −0.89 | – | – | – | – | – | – | – | – | – | – | 37.8 ± 4.3 nmol/g wet weight of the eye | 701 ± 32 | 663 ± 42 | 29.7 ± 4.3 nmol/g wet weight of the eye | – | – | – | COc1ccc(C2=N[C@@H](C(=O)O)CS2)c(O)c1 [V-A] | – |
